Assay [1] concerns the target Signal transducer and activator of transcription 3 (Homo sapiens) (UniProt P40763). Nature of the assay: Inhibition of STAT3 in human HCT116 cells at 10 uM after 24 hrs by firefly and renilla dual luciferase assay. The settings on record: HCT-116. The class given is cell-based.
For assay [2] the target is unchanged. The assay is described as follows: Inhibition of STAT3 in human HCT116 cells at 50 uM after 24 hrs by firefly and renilla dual luciferase assay. The settings on record: HCT-116. The class given is cell-based.
The target is the same in assay [3]. Nature of the assay: Inhibition of SH2 domain of STAT3 (unknown origin) using (FITC)-GpYLPQTV after 90 mins by AlphaScreen bead-based nonradioactive assay.

Some results are limits rather than exact numbers.

Chain of Signal transducer and activator of transcription 3 (Homo sapiens) (P40763 whole entry): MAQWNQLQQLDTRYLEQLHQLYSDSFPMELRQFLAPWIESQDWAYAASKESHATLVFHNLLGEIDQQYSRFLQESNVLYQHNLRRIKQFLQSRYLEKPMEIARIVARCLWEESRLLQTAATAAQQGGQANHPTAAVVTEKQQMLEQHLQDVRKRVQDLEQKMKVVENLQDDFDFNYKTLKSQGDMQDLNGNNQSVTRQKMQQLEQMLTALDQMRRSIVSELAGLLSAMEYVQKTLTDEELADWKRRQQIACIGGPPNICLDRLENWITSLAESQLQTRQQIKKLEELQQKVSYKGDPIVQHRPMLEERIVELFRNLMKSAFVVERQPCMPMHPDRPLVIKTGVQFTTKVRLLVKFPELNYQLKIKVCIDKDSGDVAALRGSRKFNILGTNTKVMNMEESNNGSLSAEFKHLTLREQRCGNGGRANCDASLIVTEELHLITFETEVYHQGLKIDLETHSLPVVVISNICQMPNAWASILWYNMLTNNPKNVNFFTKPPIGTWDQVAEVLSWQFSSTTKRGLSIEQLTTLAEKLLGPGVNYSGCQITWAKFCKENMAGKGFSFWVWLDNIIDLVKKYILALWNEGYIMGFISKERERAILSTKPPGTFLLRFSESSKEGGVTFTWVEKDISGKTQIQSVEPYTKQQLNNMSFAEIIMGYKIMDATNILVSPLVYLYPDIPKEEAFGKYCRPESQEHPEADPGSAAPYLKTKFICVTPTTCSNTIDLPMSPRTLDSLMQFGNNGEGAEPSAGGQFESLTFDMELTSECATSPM

Broadly, the inhibition is the relative decrease from the control value, in per cent. Take `C[C@H]1COC2=C1C(=O)C(=O)c1c2ccc2c1CCCC2(C)C`: the inhibition in assay [1] worked out at 78%; in assay [2], 85%.

For `O=C(Nc1ccc(C(F)(F)F)cc1)C1Cc2cc(=O)[nH]nc2-c2ccccc21` (racemic), the inhibition in assay [1] was 2%; in assay [2], 7%.

With `O=C1CC2CC(C(=O)Nc3ccc(C(F)(F)F)cc3)c3ccccc3C2=NN1` (racemic; 1), the inhibition in assay [1] is -3%; in assay [2] it was 6%.

Turning to `O=C1CC2CC(C(=O)Nc3ccc(C(F)(F)F)cc3)c3ccccc3C2=NN1` (racemic; 2), the inhibition was -6% in assay [1] and 3% in assay [2].

Consider `O=C1CC2CC(C(=O)Nc3ccc(C(F)(F)F)cc3)c3ccccc3C2=NN1` (single isomer, unassigned; (+)-1), for which the inhibition in assay [1] was 9%; in assay [2] it was 35%; in assay [3], less than 5%.

Turning to `O=C1CC2CC(C(=O)Nc3ccc(C(F)(F)F)cc3)c3ccccc3C2=NN1` (single isomer, unassigned; (+)-2a), the inhibition is -8% in assay [1] and 12% in assay [2].

For `O=C(Nc1ccc(C(F)(F)F)cc1)C1Cc2cc(=O)[nH]nc2-c2ccccc21` (single isomer, unassigned; (-)), the inhibition in assay [1] turned out to be 2%; in assay [2], 30%.

For `O=C1CC2CC(C(=O)Nc3ccc(C(F)(F)F)cc3)c3ccccc3C2=NN1` (single isomer, unassigned; (-)-1), the inhibition in assay [1] was determined as 9%; in assay [2], 14%.

Regarding `O=C1CC2CC(C(=O)Nc3ccc(C(F)(F)F)cc3)c3ccccc3C2=NN1` (single isomer, unassigned; (-)-2b), the inhibition in assay [1] was 1%; in assay [2] it was 16%.

Turning to `O=C(Nc1ccc(C(F)(F)F)cc1)C1Cc2cc(=O)[nH]nc2-c2ccccc21` (stereo in doubt; (+)-3a), the inhibition in assay [1] is -2%; in assay [2], 24%.

Source of the values: ChEMBL document CHEMBL3621121, “Modeling, synthesis and NMR characterization of novel chimera compounds targeting STAT3” (Medchemcomm, 2014).
